Laboratory results as given in the supplement of paper PMC10307832.

Columns and labels:
Assay in all cases: relative viability (nuclei count vs DMSO), 5 days (fraction); higher = more cells survive
[1] = compound: Cc1ccc(NC(=O)c2ccc(CN3CCN(C)CC3)cc2)cc1Nc1nc(-c2cccnc2)cs1 [Masitinib] + CCNC(=O)c1noc(-c2cc(C(C)C)c(O)cc2O)c1-c1ccc(CN2CCOCC2)cc1 [Luminespib] (partner 0.01 µM)
Method in brief: (§1)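 After 5 days of treatment, lung cancer cells in 1536-well plates were fixed and stained in a single step (final 0.05% Triton X-100, 1% formaldehyde, 1 ug/ml Hoechst) and their nuclei counted on 4× images. Treatment had been applied by pin tool the day after seeding as one drug alone or as a fixed anchor-drug dose with five library-drug doses (not always all listed) in √10 steps. Relative viability is the nuclei count of treated wells divided by that of vehicle wells, and values are medians of duplicate plates.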

[2] = compound: Cc1ccc(NC(=O)c2ccc(CN3CCN(C)CC3)cc2)cc1Nc1nc(-c2cccnc2)cs1 [Masitinib] + Cc1nc(NC(=O)N2CCC[C@H]2C(N)=O)sc1-c1ccnc(C(C)(C)C(F)(F)F)c1 [Alpelisib] (partner 2 µM)
Method in brief: as §1

[3] = compound: CC1=CC(=CC=C1)NC2=NC(=CS2)C3=CC=NC=C3 + N=C(N)NC(=N)NCCc1ccccc1 [Phenformin] (partner 250 µM)
Method in brief: as §1

[4] = compound: CC1=CC(=CC=C1)NC2=NC(=CS2)C3=CC=NC=C3 + CC1(C)CCC(c2ccc(Cl)cc2)=C(CN2CCN(c3ccc(C(=O)NS(=O)(=O)c4ccc(N[C@H](CCN5CCOCC5)CSc5ccccc5)c(S(=O)(=O)C(F)(F)F)c4)cc3)CC2)C1 [Navitoclax] (partner 0.5 µM)
Method in brief: as §1

Cell Line | relative viability ([1]; first compound 0.01 µM) | relative viability ([1]; first compound 0.03162 µM) | relative viability ([1]; first compound 0.1 µM) | relative viability ([1]; first compound 0.3162 µM) | relative viability ([1]; first compound 1 µM) | relative viability ([2]; first compound 0.01 µM) | relative viability ([2]; first compound 0.03162 µM) | relative viability ([2]; first compound 0.1 µM) | relative viability ([2]; first compound 0.3162 µM) | relative viability ([2]; first compound 1 µM) | relative viability ([3]; first compound 0.08 µM) | relative viability ([3]; first compound 0.253 µM) | relative viability ([3]; first compound 0.8 µM) | relative viability ([3]; first compound 2.53 µM) | relative viability ([3]; first compound 8 µM) | relative viability ([4]; first compound 0.08 µM) | relative viability ([4]; first compound 0.253 µM) | relative viability ([4]; first compound 0.8 µM) | relative viability ([4]; first compound 2.53 µM) | relative viability ([4]; first compound 8 µM)
201T | 0.821 | 1.13 | 0.944 | 1.07 | 0.993 | 0.866 | 1.01 | 0.978 | 0.877 | 0.989 | 0.389 | 0.38 | 0.44 | 0.375 | 0.433 | 1.2 | 1.22 | 1.21 | 1.26 | 0.993
A549 |  |  |  |  |  | 0.773 | 0.712 | 1.01 | 0.938 | 0.683 | 0.179 | 0.179 | 0.15 | 0.169 | 0.235 | 1.05 | 1.23 | 1.19 | 1.16 | 0.866
A-427 |  | 1.1 | 1.13 | 0.814 | 1.18 |  | 1.09 |  | 1.05 | 1.08 | 0.355 | 0.28 | 0.355 | 0.326 | 0.244 | 0.955 | 0.962 | 0.899 |  | 0.875
ABC-1 | 0.397 | 0.692 | 0.743 | 0.484 | 0.429 | 1.26 | 1.04 | 1.01 | 0.813 | 1.01 | 0.229 | 0.223 | 0.193 | 0.221 | 0.31 |  |  |  |  | 
BEN | 0.436 |  | 0.631 | 0.378 | 0.37 | 1.21 | 0.901 | 1.3 | 1.34 | 0.945 | 0.27 | 0.254 | 0.285 | 0.266 | 0.25 | 0.0747 | 0.0619 | 0.0712 | 0.0922 | 0.084
CAL-12T | 0.513 | 0.403 | 0.363 | 0.469 | 0.306 | 1.21 | 1.2 | 1.18 | 1.36 | 1.18 | 0.513 | 0.518 | 0.604 | 0.537 | 0.516 | 1.19 | 1.06 | 1.16 | 1.05 | 1.24
COR-L23 | 0.598 | 0.598 | 0.798 | 0.931 | 0.579 | 0.862 | 0.81 | 0.861 | 0.848 | 0.852 | 0.414 | 0.378 | 0.443 | 0.377 | 0.406 | 0.982 | 0.804 | 0.722 | 0.965 | 0.973
COR-L 105 | 0.758 | 0.677 | 0.776 | 0.686 | 0.66 | 1 | 1.02 | 1.05 | 0.879 | 1.15 | 0.429 | 0.495 | 0.534 | 0.388 | 0.496 | 0.573 | 0.779 | 0.634 | 0.809 | 0.456
Calu-6 |  |  |  |  |  | 1.02 | 1.01 | 1.02 | 0.872 | 0.923 |  |  |  |  |  | 0.748 | 0.685 | 0.763 | 0.773 | 0.711
ChaGo-K-1 | 0.681 | 0.48 | 0.635 | 0.524 | 0.569 |  |  |  |  |  | 0.445 | 0.439 | 0.5 | 0.409 | 0.464 | 0.9 | 0.806 | 1.06 | 0.411 | 0.849
EBC-1 |  |  |  |  |  | 0.835 | 0.713 | 1.01 | 0.715 | 0.822 |  |  |  |  |  | 0.376 | 0.381 | 0.516 | 0.391 | 0.227
EKVX |  | 0.997 | 0.599 | 0.93 | 0.786 |  | 0.779 | 0.786 | 0.706 | 0.944 | 0.225 | 0.212 | 0.228 | 0.204 | 0.215 | 0.901 | 0.837 | 0.676 | 0.923 | 0.98
EMC-BAC-2 | 1.01 | 1.06 | 1.15 | 1.13 | 1.16 | 0.701 | 0.714 | 0.841 | 0.767 | 0.783 | 0.415 | 0.505 | 0.58 | 0.541 | 0.491 | 1.06 | 1.22 | 1.1 | 1.15 | 0.963
EPLC-272H | 0.27 | 0.237 | 0.262 | 0.195 | 0.232 | 0.999 | 0.902 | 1.12 | 1.07 | 0.898 | 0.275 | 0.224 | 0.332 | 0.307 | 0.294 | 1.02 |  | 0.871 |  | 0.979
H3255 | 0.586 | 0.772 | 0.611 | 1.02 | 0.838 |  | 0.84 | 0.766 | 0.49 | 0.675 | 0.372 | 0.374 | 0.365 | 0.4 | 0.414 | 0.573 | 0.304 | 0.561 | 0.533 | 0.496
HARA |  | 0.609 | 0.44 | 0.682 | 0.731 | 0.798 | 0.621 | 0.809 | 0.727 | 0.822 | 0.338 | 0.476 | 0.413 | 0.427 | 0.347 | 1.11 | 1.16 | 1.12 | 1.12 | 1.08
HCC-15 | 0.306 | 0.389 | 0.37 | 0.476 | 0.141 | 0.8 | 0.873 | 0.976 | 0.85 | 0.916 | 0.424 | 0.462 | 0.483 | 0.501 | 0.438 | 0.698 | 0.661 | 0.65 | 0.615 | 0.507
HCC-44 | 1.04 | 1.17 | 1.08 | 1.03 | 1.09 | 0.748 | 0.752 | 0.88 | 0.69 | 0.834 | 0.128 | 0.198 | 0.3 | 0.171 | 0.294 | 0.759 | 0.728 | 0.709 | 0.749 | 0.813
